Data taken from publication PMC10004777 (Molecules, 2023).

Legend:
[1] = system: osteosarcoma cell line SJSA-1; test: Cell viability (MTT) assay, SJSA-1; type: cell-based
Protocol: (§1) To investigate the selectivity of these derivatives towards different tumor cell lines, we also selected HepG2 and osteosarcoma cell line SJSA-1 cells to evaluate the anti-proliferation activity of the derivatives. […] Except for compounds A2 and A11, the effects of other compounds on SJSA-1 were not strong.
(§2) The cell lines present in this study were obtained from Procell Life Science & Technology Co. Ltd. MCF-7, HepG2 and SJSA-1 cells were cultured in DMEM medium (DMEM, Gibco) supplemented with 10% fetal bovine serum (FBS, Gibco), 1% penicillin-streptomycin (Hyclone) at 37℃ in a humid environment with 5% CO2. HK-2 cells were cultured in DMEM/F12 (1:1) medium and placed in incubators in the same environment.
(§3) Cell viability was determined by MTT assay. MCF-7, HepG2, SJSA-1 and HK-2 cells (6 × 10^3 cells /well) were seeded in 96-well plates with serum-free medium for 24 h. […] After 48 or 72 h, 10 μL MTT (5 mg/mL, Beyotime) was added and incubated at 37 °C for 4 h. Then 100 μL of lysate was added. After complete dissolution of the crystal, the absorbance was measured at 540 nm and expressed as the average percentage of absorbance between treated and control cells. The value for control cells was set at 100%. Cell survival rate was calculated as the ratio of the absorbance of the cells and negative control after minus the blank absorbance respectively.

HK-2 cells = test: Cell viability (MTT) assay, HK-2 normal cells (cytotoxicity); type: cell-based
Protocol: as §2, §3

[2] = system: MCF-7 breast cancer cells; test: Cell viability (MTT) assay, MCF-7; type: cell-based; conditions: for anti-proliferation activity on MCF-7 compared with GAA: MCF-7, 48 h
Protocol: MCF-7 is a commonly used tumor cell line.
as §2, §3

HepG2 cells = test: Cell viability (MTT) assay, HepG2; type: cell-based; conditions: for anti-proliferation activity on HepG2 (in words): HepG2, 48 h
Protocol: as §1, §2, §3

| Compound | Viability of Cells (% of Control) ([1]; 50 µM) | Viability of Cells (% of Control) ([1]; 100 µM) | Viability of Cells (% of Control) (HK-2 cells; 50 µM) | Viability of Cells (% of Control) (HK-2 cells; 100 µM) | Viability of Cells (% of Control) ([2]; 25 µM) | Viability of Cells (% of Control) ([2]; 50 µM) | Viability of Cells (% of Control) ([2]; 100 µM) | melting point | Viability of Cells (% of Control) (HepG2 cells; 25 µM) | Viability of Cells (% of Control) (HepG2 cells; 50 µM) | anti-proliferation activity on MCF-7 compared with GAA [2] | anti-proliferation activity on HepG2 (in words) (HepG2 cells) | toxicity to HK2 cells (in words) (HK-2 cells) | inhibition at 50 µM ([2]; Homo sapiens, MCF7, MCF-7, 50 µM, 48 h, read-out: inhibition rate of MCF-7) |
| --- | --- | --- | --- | --- | --- | --- | --- | --- | --- | --- | --- | --- | --- | --- |
| Cc1ccc(CCNC(=O)[C@H](C)CC(=O)C[C@@H](C)[C@H]2C[C@H](O)[C@@]3(C)C4=C(C(=O)C[C@]23C)[C@@]2(C)CCC(=O)C(C)(C)[C@@H]2C[C@@H]4O)cc1 [Compound A10, (4-Methylphenethyl)-(7β,15α,25R)-7,15-Dihydroxy-3,11,23-Trioxolanost-8-en-26-oic Amide] | 80.0 ± 2.7 % of Control | 75.6 ± 4.8 % of Control | 110.9 ± 9.6 % of Control | 91.1 ± 5.5 % of Control | 120.8 ± 4.8 % of Control | 118.3 ± 6.0 % of Control | 104.1 ± 2.2 % of Control | 221.9 to 223 °C | 57.9 ± 0.5 % of Control | 58.8 ± 1.4 % of Control | – | – | – | – |
| C[C@H](CC(=O)C[C@@H](C)[C@H]1C[C@H](O)[C@@]2(C)C3=C(C(=O)C[C@]12C)[C@@]1(C)CCC(=O)C(C)(C)[C@@H]1C[C@@H]3O)C(=O)NCc1cc(Cl)cc(Cl)c1 [Compound A8, (3,5-Dichlorobenzyl)-(7β,15α,25R)-7,15-Dihydroxy-3,11,23-Trioxolanost-8-en-26-oic Amide] | 92.4 ± 1.4 % of Control | 80.4 ± 4.7 % of Control | 107.8 ± 14.3 % of Control | 91.0 ± 2.4 % of Control | 63.3 ± 8.3 % of Control | – | 39.4 ± 5.8 % of Control | 182.6 to 183.8 °C | 54.2 ± 2.0 % of Control | 48.1 ± 1.5 % of Control | significant anti-proliferation activities | potent anti-proliferation activity | – | – |
| C[C@H](CC(=O)C[C@@H](C)[C@H]1C[C@H](O)[C@@]2(C)C3=C(C(=O)C[C@]12C)[C@@]1(C)CCC(=O)C(C)(C)[C@@H]1C[C@@H]3O)C(=O)Nc1ccc(Cl)cc1 [Compound A4, (4-Chlorophenyl)-(7β,15α,25R)-7,15-Dhydroxy-3,11,23-Trioxolanost-8-en-26-oic Amide] | 83.9 ± 5.4 % of Control | 57.4 ± 4.2 % of Control | – | – | 116.4 ± 4.8 % of Control | 120.7 ± 2.0 % of Control | 108.9 ± 1.1 % of Control | 184.9 to 185.3 °C | 87.7 ± 1.9 % of Control | 72.0 ± 1.9 % of Control | – | – | – | – |
| Cc1ccc(NC(=O)[C@H](C)CC(=O)C[C@@H](C)[C@H]2C[C@H](O)[C@@]3(C)C4=C(C(=O)C[C@]23C)[C@@]2(C)CCC(=O)C(C)(C)[C@@H]2C[C@@H]4O)cc1 [Compound A3, (4-Methylphenyl)-(7β,15α,25R)-7,15-Dihydroxy-3,11,23-Trioxolanost-8-en-26-oic Amide] | 85.3 ± 1.1 % of Control | 83.3 ± 3.0 % of Control | – | – | 110.9 ± 2.2 % of Control | 114.3 ± 1.2 % of Control | 78.7 ± 3.9 % of Control | 174.3 to 175.5 °C | 90.1 ± 1.1 % of Control | 76.3 ± 1.1 % of Control | – | – | – | – |
| C[C@H](CC(=O)C[C@@H](C)[C@H]1C[C@H](O)[C@@]2(C)C3=C(C(=O)C[C@]12C)[C@@]1(C)CCC(=O)C(C)(C)[C@@H]1C[C@@H]3O)C(=O)NC1Cc2ccccc2C1 [Compound A9, (2,3-Dihydro-1H-inden-2-yl)-(7β,15α,25R)-7,15-Dihydroxy-3,11,23-Trioxolanost-8-en-26-oic Amide] | 99.2 ± 2.6 % of Control | 89.6 ± 3.8 % of Control | 79.0 ± 2.9 % of Control | 80.1 ± 2.8 % of Control | 87.5 ± 7.6 % of Control | 53.3 ± 6.9 % of Control | 40.3 ± 7.8 % of Control | 199.7 to 200.3 °C | 64.2 ± 1.4 % of Control | 52.4 ± 2.1 % of Control | significant anti-proliferation activities | potent anti-proliferation activity | some toxicity | – |
| C[C@H](CC(=O)C[C@@H](C)[C@H]1C[C@H](O)[C@@]2(C)C3=C(C(=O)C[C@]12C)[C@@]1(C)CCC(=O)C(C)(C)[C@@H]1C[C@@H]3O)C(=O)NCc1ccc(F)cc1 [Compound A6, (4-Fluorobenzyl)-(7β,15α,25R)-7,15-Dihydroxy-3,11,23-Trioxolanost-8-en-26-oic Amide] | 92.6 ± 3.1 % of Control | 65.8 ± 3.2 % of Control | 89.6 ± 6.9 % of Control | 80.2 ± 9.0 % of Control | 77.1 ± 4.2 % of Control | – | 26.4 ± 1.5 % of Control | 178.4 to 179.3 °C | 84.0 ± 0.8 % of Control | 76.6 ± 1.6 % of Control | significant anti-proliferation activities | weaker anti-proliferation effect | some toxicity | 63.6% |
| C[C@H](CC(=O)C[C@@H](C)[C@H]1C[C@H](O)[C@@]2(C)C3=C(C(=O)C[C@]12C)[C@@]1(C)CCC(=O)C(C)(C)[C@@H]1C[C@@H]3O)C(=O)N1CCN(C)CC1 [Compound A13, (4-Methylpiperazin-1-yl)-(7β,15α,25R)-7,15-Dihydroxy-3,11,23-Trioxolanost-8-en-26-oic Amide] | 87.6 ± 3.8 % of Control | 77.6 ± 3.5 % of Control | – | – | 113.6 ± 2.1 % of Control | 107.3 ± 9.1 % of Control | 102.7 ± 3.5 % of Control | 173.2 to 174.9 °C | 104.4 ± 2.0 % of Control | 99.3 ± 4.9 % of Control | – | – | – | – |
| CCCCNC(=O)[C@H](C)CC(=O)C[C@@H](C)[C@H]1C[C@H](O)[C@@]2(C)C3=C(C(=O)C[C@]12C)[C@@]1(C)CCC(=O)C(C)(C)[C@@H]1C[C@@H]3O [Compound A1, (n-butyl)-(7β,15α,25R)-7,15-Dihydroxy-3,11,23-Trioxolanost-8-en-26-oic Amide] | 87.9 ± 0.9 % of Control | 74.0 ± 3.8 % of Control | – | – | 96.6 ± 6.2 % of Control | 114.3 ± 1.2 % of Control | 78.7 ± 3.4 % of Control | 120.7 to 121.5 °C | 90.5 ± 1.1 % of Control | 87.2 ± 3.1 % of Control | – | – | – | – |
| CCN1CCN(C(=O)[C@H](C)CC(=O)C[C@@H](C)[C@H]2C[C@H](O)[C@@]3(C)C4=C(C(=O)C[C@]23C)[C@@]2(C)CCC(=O)C(C)(C)[C@@H]2C[C@@H]4O)CC1 [Compound A14, (4-Ethylpiperazin-1-yl)-(7β,15α,25R)-7,15-Dihydroxy-3,11,23-Trioxolanost-8-en-26-oic Amide] | 70.4 ± 1.6 % of Control | 47.3 ± 2.1 % of Control | – | – | 106.2 ± 4.7 % of Control | 102.2 ± 5.9 % of Control | 96.2 ± 5.0 % of Control | 198.5 to 199.4 °C | 95.6 ± 1.9 % of Control | 99.3 ± 0.2 % of Control | – | – | – | – |
